System: brains, heart, liver, muscle, and DRG of the NHPs
Test: Maturation of TTM-001 and TTM-002 capsids, NGS enrichment in NHP tissues
Type: in vivo
Description: This Example describes maturation of the AAV9 capsid variants, TTM-001 (SEQ ID NO: 981 (amino acid) and 983 (DNA), comprising SEQ ID NO: 941 (encoded by SEQ ID NO: 942)) and TTM-002 (SEQ ID NO: 982 (amino acid) and 984 (DNA), comprising SEQ ID NO: […] (encoded by SEQ ID NO: 944)) in NHPs to further enhance their transduction and biodistribution in the central nervous system as well as other tissues, and evolve the AAV capsid variants to provide further cross-species compatibility. Two approaches were used to mature the TTM-001 and TTM-002 capsid sequences in order to randomize and mutate within and around the peptide insert comprised within loop IV of the capsid variant. […] In the first maturation approach, sets of three contiguous amino acids were randomized across the mutagenesis region in the TTM-001 and TTM-002 sequences, which spanned from position 450 to position 466, numbered according to SEQ ID NO: 981 and 982. In the second maturation approach, mutagenic primers were used to introduce point mutations at a low frequency, scattered across the mutagenesis region in the TTM-001 and TTM-002 sequences ranging from position 449 to position 466, numbered according to SEQ ID NO: 981 and 982. AAV capsid variants arising from each maturation approach for TTM-001 and TTM-002 were pooled together, for subsequent testing and characterization in NHPs.
The library of pooled matured AAV capsid variants generated using the first maturation approach and the second maturation approach for the TTM-001 and TTM-002 AAV capsid variants were injected into two NHPs. […] Following RNA recovery and RT-PCR amplification, a systematic NGS enrichment analysis was performed to calculate the fold enrichment ratio relative to an AAV9 control, and the peptides comprised within the variants were identified.
Following the RNA recovery and NGS analysis from the second maturation approach, approximately 680,000 capsid variants were identified. The 680,000 matured capsid variants were then filtered based on samples with a raw virus count greater than 10 and a coefficient of variance (CV) of less than 1, which was calculated for each peptide across the brain samples taken from the two NHPs. […] Using this filtering criteria, this led to approximately 64,000 matured capsid variants.

[1] = NHP DRG, NGS, relative to AAV9 control
[2] = NHP brain, NGS, relative to AAV9 control
[3] = NHP heart, NGS, relative to AAV9 control
[4] = NHP liver DNA, NGS, relative to AAV9 control
[5] = NHP liver RNA, NGS, TTM-001 and TTM-002 matured AAV capsid variants, relative to AAV9 control
[6] = NHP muscle, NGS, relative to AAV9 control

| Sequence | Fold Enrichment relative to AAV9, DRG (NHP) [1] [fold] | Fold Enrichment relative to AAV9, Brain (NHP) [2] [fold] | Fold Enrichment relative to AAV9, Heart (NHP) [3] [fold] | Fold Enrichment relative to AAV9, Liver DNA (NHP) [4] [fold] | Fold Enrichment relative to AAV9, Liver RNA (NHP) [5] [fold] | Fold Enrichment relative to AAV9, Muscle (NHP) [6] [fold] | Fold Enrichment relative to AAV9, DRG (NHP) (NGS fold-enrichment, DRG, NHP, relative to AAV9) [fold] | Fold Enrichment relative to AAV9, Brain (NHP) (NGS fold-enrichment, brain, NHP, relative to AAV9) [fold] | Fold Enrichment relative to AAV9, Heart (NHP) (NGS fold-enrichment, heart, NHP, relative to AAV9) [fold] | Fold Enrichment relative to AAV9, Liver DNA (NHP) (NGS fold-enrichment, liver DNA, NHP, relative to AAV9) [fold] | Fold Enrichment relative to AAV9, Liver RNA (NHP) (NGS fold-enrichment, liver RNA, NHP, relative to AAV9) [fold] | Fold Enrichment relative to AAV9, Muscle (NHP) (NGS fold-enrichment, muscle, NHP, relative to AAV9) [fold] |
| --- | --- | --- | --- | --- | --- | --- | --- | --- | --- | --- | --- | --- |
| KTINGSGSPHSKAQNFKR | 0.000 | 0.000 | 0.000 | 0.964 | 32.291 | 0.000 |  |  |  |  |  |  |
| KTINGSGSPHSKKTSQQT | 0.000 | 0.000 | 0.000 | 1.344 | 15.244 | 0.000 |  |  |  |  |  |  |
| KTINGSGSPHSKFFIQQT | 0.000 | 0.000 | 0.000 | 6.916 | 63.255 | 0.000 |  |  |  |  |  |  |
| KTINGSGSPHSGACNQQT | 0.000 | 0.000 | 0.000 | 3.215 | 39.163 | 4733.916 |  |  |  |  |  |  |
| KTINGSGSPHSKAQSAKT | 0.000 | 0.000 | 0.000 | 4.200 | 11.162 | 0.000 |  |  |  |  |  |  |
| KTINGSGSPHSKALRCQT | 0.000 | 0.000 | 0.000 | 1.892 | 17.283 | 0.000 |  |  |  |  |  |  |
| KTTRKSGSPHSKAQNQQT | 0.000 | 0.000 | 0.000 | 2.617 | 18.849 | 0.000 |  |  |  |  |  |  |
| KTINGSGSPHSKLKRQQT | 0.000 | 0.000 | 0.000 | 6.884 | 76.103 | 0.000 |  |  |  |  |  |  |
| KTINGSGSPHSKAQKCIT | 0.000 | 0.000 | 0.000 | 1.887 | 69.547 | 0.000 |  |  |  |  |  |  |
| KTINGSGSPHSKMICQQT | 0.000 | 0.000 | 0.000 | 0.144 | 21.036 | 0.000 |  |  |  |  |  |  |
| KTINGSSSPHWMAQNQQT (peptide inserted in AAV capsid) | 0.000 | 0.000 | 0.000 | 2.390 | 16.635 | 0.000 |  |  |  |  |  |  |
| KTINGSGSPHPSCQNQQT | 0.000 | 0.000 | 0.000 | 2.790 | 27.796 | 0.000 |  |  |  |  |  |  |
| KTINGSGSPHSKRKRQQT | 0.000 | 0.000 | 0.000 | 3.027 | 11.215 | 0.000 |  |  |  |  |  |  |
| KTINGSGSPHSLYQNQQT | 0.000 | 0.000 | 0.000 | 1.503 | 11.590 | 0.000 |  |  |  |  |  |  |
| KTINGSGSPHSKTRKQQT | 0.000 | 0.000 | 0.000 | 2.858 | 36.010 | 0.000 |  |  |  |  |  |  |
| KTINGSGSPHSYARNQQT | 0.000 | 0.000 | 0.000 | 0.996 | 11.131 | 0.000 |  |  |  |  |  |  |
| KTINHRISPHSKAQNQQT | 0.000 | 0.000 | 0.000 | 1.876 | 42.998 | 0.000 |  |  |  |  |  |  |
| KTIKRYGSPHSKAQNQQT | 0.000 | 0.000 | 0.000 | 2.022 | 11.461 | 0.000 |  |  |  |  |  |  |
| KTINGSGSPHSFRPNQQT | 0.000 | 0.000 | 0.000 | 9.191 | 44.801 | 0.000 |  |  |  |  |  |  |
| KTTGRSGSPHSKAQNQQT |  |  |  |  |  |  | 0.000 | 0.000 | 0.000 | 0.126 | 10.863 | 0.000 |
| KTINGSGSPHWSYQNQQT | 0.000 | 0.000 | 0.000 | 3.751 | 28.607 | 0.000 |  |  |  |  |  |  |
| KTINGSGSPHVYYQNQQT | 0.000 | 0.944 | 0.246 | 2.173 | 53.294 | 5.268 |  |  |  |  |  |  |

Source: patent US20260250318A1, “COMPOSITIONS AND METHODS FOR CROSSING THE BLOOD BRAIN BARRIER” (VOYAGER THERAPEUTICS, INC., priority 2022, published 2026)
